# Laboratory results from patent US7473698B2, “Secondary amino anilinic piperidines as MCH1 antagonists and uses thereof” (H. Lunbeck A/S, priority 2003, dated 2009).
# Legend:
# rat MCH-1 [1] = target: T1, rat MCH-1 (Rattus norvegicus, UniProt P97639); experiment: Radioligand binding assay at cloned rat MCH1 receptor, [3H]Compound A, Peakr293 cell membranes; design: expressed in transfected cells; host or cells: Human embryonic kidney Peak rapid 293 cells (Peakr293), transient, calcium phosphate; membranes; conditions: 0.08 nM [3H]Compound A, 25° C., 90 minutes
# T1 sequence (P97639 whole entry): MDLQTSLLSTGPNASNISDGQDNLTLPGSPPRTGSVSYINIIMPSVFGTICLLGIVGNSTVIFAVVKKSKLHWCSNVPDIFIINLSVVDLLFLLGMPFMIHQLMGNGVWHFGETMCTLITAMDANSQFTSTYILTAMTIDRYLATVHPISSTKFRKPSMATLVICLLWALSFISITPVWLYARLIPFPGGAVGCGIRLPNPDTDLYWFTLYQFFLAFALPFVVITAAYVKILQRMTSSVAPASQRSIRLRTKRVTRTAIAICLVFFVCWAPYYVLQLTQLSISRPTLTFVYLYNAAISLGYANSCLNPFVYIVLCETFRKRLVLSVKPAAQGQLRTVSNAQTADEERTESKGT
# Method: For binding assays, pellets of transfected cells are suspended in ice-cold buffer (20 mM Tris.HCl, 5 mM EDTA, pH 7.4) and homogenized by sonication for 7 sec. The cell lysates are centrifuged at 200×g for 5 min at 4° C. The supernatants are then centrifuged at 40,000×g for 20 min at 4° C. The resulting pellets are washed once in the homogenization buffer and suspended in binding buffer (see methods for radioligand binding). Protein concentrations are determined by the method of Bradford (1976) using bovine serum albumin as the standard. Binding assays are usually performed immediately, however it is possible to prepare membranes in batch and store frozen in liquid nitrogen for future use.
# Radioligand binding assays for the rat MCH1 receptor were carried out using plasmid pcDNA3.1-rMCH1-f (ATCC Patent Deposit Designation No. PTA-3505). Plasmid pcDNA3.1-rMCH1-f comprises the regulatory elements necessary for expression of DNA in a mammalian cell operatively linked to DNA encoding the rat MCH1 receptor so as to permit expression thereof. Plasmid pcDNA3.1-rMCH1-f was deposited on Jul. 5, 2001, with the American Type Culture Collection (ATCC), 12301 Parklawn Drive, Rockville, Md. 20852, U.S.A. under the provisions of the Budapest Treaty for the International Recognition of the Deposit of Microorganisms for the Purposes of Patent Procedure and was accorded ATCC Patent Deposit Designation No. PTA-3505.
# Human embryonic kidney Peak rapid 293 cells (Peakr293 cells) were transiently transfected with DNA encoding the MCH1 receptor utilizing the calcium phosphate method and cell membranes were prepared as described above. Binding experiments with membranes from Peakr293 cells transfected with the rat MCH1 receptor were performed with 0.08 nM [^3H]Compound A (custom labeled by Amersham) (the synthesis of Compound A is described in detail below) using an incubation buffer consisting of 50 mM Tris pH 7.4, 10 mM MgCl2, 0.16 mM PMSF, 1 mM 1,10 phenantroline and 0.2% BSA. Binding was performed at 25° C. for 90 minutes. Incubations were terminated by rapid vacuum filtration over GF/C glass fiber filters, presoaked in 5% PEI using […] Tris pH 7.4 as wash buffer. In all experiments, nonspecific binding is defined using […] Compound A.
# The compounds described above were assayed using cloned rat MCH1.
# rat MCH-1 [2] = target: T1, rat MCH-1; conditions: one range printed for rat and human; cited from earlier work
# human MCH-1 = human MCH-1 (Homo sapiens, UniProt Q99705); conditions: one range printed for rat and human; cited from earlier work
# Chain of human MCH-1 (Q99705 whole entry): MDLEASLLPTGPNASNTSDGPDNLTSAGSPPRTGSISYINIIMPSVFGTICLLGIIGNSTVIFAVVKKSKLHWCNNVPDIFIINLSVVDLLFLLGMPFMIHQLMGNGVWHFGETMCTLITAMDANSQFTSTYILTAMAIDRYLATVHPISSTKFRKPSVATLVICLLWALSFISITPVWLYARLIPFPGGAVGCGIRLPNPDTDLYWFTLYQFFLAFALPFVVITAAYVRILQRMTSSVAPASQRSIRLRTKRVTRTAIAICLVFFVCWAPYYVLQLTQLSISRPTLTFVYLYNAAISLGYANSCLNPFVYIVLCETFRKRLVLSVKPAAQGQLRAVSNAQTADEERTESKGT
# MCH-1 receptor = MCH-1 receptor (Rattus norvegicus, UniProt P97639); conditions: in vivo; cited from earlier work
# Chain of MCH-1 receptor (P97639 whole entry): as the sequence (P97639 whole entry) above
# G4F-7 cells = conditions: cited from earlier work
Ki (rat MCH-1 [1]) [µM],Compound,other results
0.142,"COC(=O)C1=C(C)NC(=O)N(C(=O)NCCCC(=O)Nc2cccc(C3CCNCC3)c2)C1c1ccc(F)cc1 (centres unmarked) [Example 7, Methyl 4-(4-Fluorophenyl)-6-Methyl-2-Oxo-3-[({4-OXO-4-[3-(4-Piperidinyl)Anilino]Butyl}Amino)Carbonyl]-1,2,3,4-Tetrahydro-5-Pyrimidinecarboxylate]",–
0.313,"O=C(CCCCC(=O)c1ccccc1)Nc1cc(C2CCNCC2)ccc1F [Example 9, N-[2-Fluoro-5-(4-Piperidinyl) Phenyl]-6-Oxo-6-Phenylhexanamide]",–
0.0209,"COc1ccccc1CCCCC(=O)Nc1cc(C2CCNCC2)ccc1F [Example 10, N-[2-Fluoro-5-(4-Piperidinyl)Phenyl]-5-(2-Methoxyphenyl)Pentanamide]",–
0.0466,"COc1ccccc1CCCCC(=O)Nc1cc(C2CCNCC2)c(F)cc1F [Example 11, N-[2,4-Difluoro-5-(4-Piperidinyl)Phenyl]-5-(2-Methoxyphenyl)Pentanamide]",–
0.0338,"O=C(CCc1ccc(Oc2ccc(F)c(F)c2)cc1)Nc1cc(C2CCNCC2)ccc1F [Example 12, 3-[4-(3,4-Difluorophenoxy)Phenyl]-N-[2-Fluoro-5-(4-Piperidinyl)Phenyl]Propanamide]",–

# The next lines start with the compound.
Compound,Ki (rat MCH-1 [1]) [µM],other results
"COc1ccccc1CCCCC(=O)Nc1cccc(C2CCNCC2)c1 [Example 1, 5-(2-Methoxyphenyl)-N-[3-(4-Piperidinyl)Phenyl]Pentanamide]",0.0796,–
"O=C(CCCCc1ccccc1)Nc1cccc(C2CCNCC2)c1 [Example 2, 5-Phenyl-N-[3-(4-Piperidinyl)Phenyl]Pentanamide]",0.197,–
"O=C(CCCCC(=O)c1ccccc1)Nc1cccc(C2CCNCC2)c1 [Example 3, 6-Oxo-6-Phenyl-N-[3-(4-Piperidinyl)Phenyl]Hexanamide]",1.1,–
"O=C(Nc1cccc(C2CCNCC2)c1)c1cccnc1Oc1ccccc1 [Example 4, 2-Phenoxy-N-[3-(4-Piperidinyl) Phenyl]Nicotinamide]",0.353,–
"COc1ccc(CCCCC(=O)Nc2cccc(C3CCNCC3)c2)cc1 [Example 5, 5-(4-Methoxyphenyl)-N-[3-(4-Piperidinyl)Phenyl]Pentanamide]",0.476,–
"O=C(CCCCCNc1ccc(F)c(F)c1)Nc1cccc(C2CCNCC2)c1 [Example 6, 6-(3,4-Difluoroanilino)-N-[3-(4-Piperidinyl) Phenyl]Hexanamide]",0.438,–
CN(C)CC1CCc2cc(NC(=O)c3ccc(-c4ccc(F)cc4)cc3)ccc2C1 (centres unmarked) [Example T-226296],–,affinity for the MCH-1 receptor (rat MCH-1 [2]): 5 to 9 nM; affinity for the MCH-1 receptor (human MCH-1): 5 to 9 nM; food intake induced by the intracerebroventricular application of MCH (MCH-1 receptor): inhibit food intake
"[Phe^13,Tyr^19]-MCH",–,"Kd (G4F-7 cells; radioiodinated ligand, G4F-7 cells): 0.000118 µM"
"native MCH: Melanin-concentrating hormone, a cyclic peptide",–,"Ki (G4F-7 cells; inhibition of radioiodinated [Phe13,Tyr19]-MCH binding): 0.012 µM"
α-MSH,–,"inhibition of binding (G4F-7 cells; inhibition of radioiodinated [Phe13,Tyr19]-MCH binding, in words): not inhibited"
